ChEMBL document CHEMBL5523680, “Small molecule modulators of cystic fibrosis transmembrane conductance regulator (CFTR): Structure, classification, and mechanisms” (Eur J Med Chem, 2024)
Values belong to the molecule of their own block, whether it stands above or below them.

How the values were obtained:
[1] = target: T1, Cystic fibrosis transmembrane conductance regulator (Homo sapiens, UniProt P13569, F508DEL); test: Activation of CFTR F508del mutant (unknown origin)
[2] = target: T1, Cystic fibrosis transmembrane conductance regulator; test: Corrector activity at […] CFTR F508del mutant (unknown origin) expressed in BHK cells assessed as increase in chloride secretion […]; format: cell-based
[3] = target: T1, Cystic fibrosis transmembrane conductance regulator; test: Potentiation of CFTR F508del mutant (unknown origin) expressed in NIH3T3 cells; format: cell-based
[4] = target: T1, Cystic fibrosis transmembrane conductance regulator; test: Potentiation of CFTR F508del mutant (unknown origin) in FRT cells assessed as rescue of CFTR mutant incubated for 24 hrs in presence of VX-770; format: cell-based
[5] = target: Cystic fibrosis transmembrane conductance regulator (Homo sapiens, UniProt P13569, W1282X); test: Potentiation of CFTR W1282X mutant (unknown origin) transfected in […] FRT cells in presence of forskolin/VX-770; format: cell-based
[6] = test system: Cystic fibrosis transmembrane conductance regulator (Homo sapiens), P13569 [G551D]; test: Potentiation of CFTR G551D mutant (unknown origin) expressed in FRT cells assessed as increase in chloride current in presence of VX-770 relative to control; format: cell-based; conditions: filed as activator
[7] = target: T2, Cystic fibrosis transmembrane conductance regulator (Homo sapiens, UniProt P13569, N1303K); test: Potentiation of CFTR N1303K mutant (unknown origin) transfected in […] FRT cells in presence of forskolin/VX-770; format: cell-based
[8] = target: T2, Cystic fibrosis transmembrane conductance regulator; test: Potentiation of CFTR N1303K mutant (unknown origin) expressed in FRT cells assessed as increase in CFTR mutant activity; format: cell-based
[9] = target: Cystic fibrosis transmembrane conductance regulator (Homo sapiens, UniProt P13569, G551D); test: Potentiation of CFTR G551D mutant (unknown origin) expressed in FRT cells; format: cell-based
Sequence of Cystic fibrosis transmembrane conductance regulator (Homo sapiens, UniProt P13569, G551D) (P13569 whole entry G551D): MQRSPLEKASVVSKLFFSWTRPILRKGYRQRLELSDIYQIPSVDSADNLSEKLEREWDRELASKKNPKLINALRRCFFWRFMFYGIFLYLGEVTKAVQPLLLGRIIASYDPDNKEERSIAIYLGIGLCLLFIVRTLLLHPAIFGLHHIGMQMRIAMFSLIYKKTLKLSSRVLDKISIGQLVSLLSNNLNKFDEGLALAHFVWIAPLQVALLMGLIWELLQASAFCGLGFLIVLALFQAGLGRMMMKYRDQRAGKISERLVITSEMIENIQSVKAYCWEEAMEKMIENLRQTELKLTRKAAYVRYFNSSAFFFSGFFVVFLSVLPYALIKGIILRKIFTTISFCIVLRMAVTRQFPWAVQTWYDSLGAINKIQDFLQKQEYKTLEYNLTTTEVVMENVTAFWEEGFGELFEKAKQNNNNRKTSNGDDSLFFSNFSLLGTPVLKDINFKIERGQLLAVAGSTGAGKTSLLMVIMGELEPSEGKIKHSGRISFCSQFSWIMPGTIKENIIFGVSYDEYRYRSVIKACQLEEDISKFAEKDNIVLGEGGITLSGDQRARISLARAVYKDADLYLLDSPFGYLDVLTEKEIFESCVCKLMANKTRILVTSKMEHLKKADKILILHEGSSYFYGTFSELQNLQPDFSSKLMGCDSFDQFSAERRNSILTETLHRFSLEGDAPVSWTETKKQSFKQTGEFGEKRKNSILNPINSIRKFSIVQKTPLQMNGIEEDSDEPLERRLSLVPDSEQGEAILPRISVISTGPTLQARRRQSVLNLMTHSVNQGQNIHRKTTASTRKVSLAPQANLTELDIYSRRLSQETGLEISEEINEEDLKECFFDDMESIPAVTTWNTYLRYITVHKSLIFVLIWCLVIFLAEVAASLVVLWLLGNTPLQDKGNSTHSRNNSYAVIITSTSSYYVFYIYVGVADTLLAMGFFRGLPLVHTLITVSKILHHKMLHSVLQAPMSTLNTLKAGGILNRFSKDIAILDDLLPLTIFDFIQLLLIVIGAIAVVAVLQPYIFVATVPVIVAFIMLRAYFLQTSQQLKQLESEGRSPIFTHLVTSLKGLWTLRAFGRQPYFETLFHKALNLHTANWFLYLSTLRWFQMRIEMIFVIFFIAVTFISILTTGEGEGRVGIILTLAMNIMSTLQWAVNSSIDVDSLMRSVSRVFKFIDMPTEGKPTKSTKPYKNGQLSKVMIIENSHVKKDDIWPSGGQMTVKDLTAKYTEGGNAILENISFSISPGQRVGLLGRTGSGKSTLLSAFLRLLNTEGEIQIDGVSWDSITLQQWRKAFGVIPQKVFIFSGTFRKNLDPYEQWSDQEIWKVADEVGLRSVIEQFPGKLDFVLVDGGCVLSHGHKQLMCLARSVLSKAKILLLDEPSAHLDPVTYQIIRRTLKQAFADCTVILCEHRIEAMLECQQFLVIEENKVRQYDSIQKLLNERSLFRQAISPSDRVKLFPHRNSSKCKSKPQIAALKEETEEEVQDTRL

T1 sequence (P13569 as listed by the source): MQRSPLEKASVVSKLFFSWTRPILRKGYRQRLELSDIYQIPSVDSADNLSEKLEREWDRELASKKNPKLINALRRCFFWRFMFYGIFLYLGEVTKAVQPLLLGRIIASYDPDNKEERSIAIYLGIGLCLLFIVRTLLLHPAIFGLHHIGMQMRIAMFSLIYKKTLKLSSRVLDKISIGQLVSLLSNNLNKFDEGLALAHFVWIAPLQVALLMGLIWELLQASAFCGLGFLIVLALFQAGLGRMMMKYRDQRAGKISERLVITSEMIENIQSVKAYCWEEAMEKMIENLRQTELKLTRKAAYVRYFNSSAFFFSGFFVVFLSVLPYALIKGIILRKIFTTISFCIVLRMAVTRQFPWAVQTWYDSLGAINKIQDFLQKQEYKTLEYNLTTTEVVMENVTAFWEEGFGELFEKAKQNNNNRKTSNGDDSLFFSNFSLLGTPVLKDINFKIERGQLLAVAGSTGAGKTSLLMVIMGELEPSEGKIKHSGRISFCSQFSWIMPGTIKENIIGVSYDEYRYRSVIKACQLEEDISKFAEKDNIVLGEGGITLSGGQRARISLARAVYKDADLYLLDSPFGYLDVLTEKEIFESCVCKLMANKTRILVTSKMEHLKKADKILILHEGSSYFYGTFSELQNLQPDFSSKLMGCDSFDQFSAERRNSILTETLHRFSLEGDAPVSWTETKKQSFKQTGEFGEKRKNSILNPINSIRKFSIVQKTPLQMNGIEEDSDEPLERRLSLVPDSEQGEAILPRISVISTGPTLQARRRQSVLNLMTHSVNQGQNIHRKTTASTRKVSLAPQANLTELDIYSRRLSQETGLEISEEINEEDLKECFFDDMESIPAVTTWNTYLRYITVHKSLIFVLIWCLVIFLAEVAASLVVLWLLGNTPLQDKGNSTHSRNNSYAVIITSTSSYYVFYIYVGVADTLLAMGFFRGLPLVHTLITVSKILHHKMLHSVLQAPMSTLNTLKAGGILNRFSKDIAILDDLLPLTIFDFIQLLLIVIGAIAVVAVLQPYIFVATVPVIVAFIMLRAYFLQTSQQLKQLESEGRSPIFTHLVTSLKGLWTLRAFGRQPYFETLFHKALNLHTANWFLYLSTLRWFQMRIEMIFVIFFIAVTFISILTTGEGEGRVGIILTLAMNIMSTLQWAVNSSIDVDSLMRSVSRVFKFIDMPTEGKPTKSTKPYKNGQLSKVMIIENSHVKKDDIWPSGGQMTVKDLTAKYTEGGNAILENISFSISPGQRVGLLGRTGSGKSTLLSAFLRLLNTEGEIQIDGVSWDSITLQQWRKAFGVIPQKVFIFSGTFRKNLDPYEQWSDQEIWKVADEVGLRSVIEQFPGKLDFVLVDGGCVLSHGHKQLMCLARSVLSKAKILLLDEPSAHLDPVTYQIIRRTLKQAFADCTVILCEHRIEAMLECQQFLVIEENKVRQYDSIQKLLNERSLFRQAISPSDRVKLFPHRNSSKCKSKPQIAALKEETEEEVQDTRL
T2 sequence (P13569 whole entry N1303K): as the sequence (P13569 whole entry G551D) above, with D551G, N1303K counted along it
Sequence of Cystic fibrosis transmembrane conductance regulator (Homo sapiens), P13569 [G551D] (P13569 whole entry G551D): as the sequence (P13569 whole entry G551D) above

EC50 [1]: 1.9 µM
SMILES: OCc1cccc(N2C=CN(c3ccccc3)N2)c1

EC50 [2]: 0.081 µM
EC50 [3]: 7 µM
SMILES: O=C(Nc1ncc(Cc2ccccc2Cl)s1)C(c1ccccc1)c1ccccc1

EC50 [1]: 3 µM
SMILES: OC(C1=NC(c2ccc(Br)cc2)NN1)c1ccccc1Br (stereo unspecified)

EC50 [4]: 0.4 µM
SMILES: Cc1ncccc1CNC(=O)c1ccc2c(c1)CC[C@@H]1C[C@@](O)(CCC(F)(F)F)CC[C@@]21Cc1ccccc1

EC50 [1]: 0.93 µM
SMILES: Cc1ccc(S(=O)(=O)Nc2nc3ccccc3nc2C2CCOCC2)cc1

EC50 [1]: 4.2 µM
SMILES: OC(C1=CNNN1c1ccc(Br)cc1)c1ccccc1Br (stereo unspecified)

EC50 [5]: 1 µM
Activity [6]: 65%
EC50 [7]: 1.9 µM
SMILES: CCCCN1CC(S(=O)(=O)Nc2ccc(CC)cc2)c2cccnc21 (stereo unspecified)

EC50 [1]: 2.7 µM
SMILES: OC(C1=NC(c2ccc(Br)cc2)NN1)c1ccc(Br)cc1 (stereo unspecified)

EC50 [1]: 1 µM
SMILES: O=P(O)(CCP(=O)(O)c1ccccc1)c1ccccc1

SMILES: O=c1cc(-c2ccc(O)cc2)oc2cc(O)cc(O)c12 [APIGENIN]
EC50 [8]: 10.8 µM

EC50 [9]: 0.1 µM
SMILES: O=C(Nc1ccc2cc[nH]c2c1)c1c[nH]c2ccccc2c1=O

EC50 [3]: 1.1 µM
SMILES: CC(C)(CO)c1cc2cc(NC(=O)C3(c4ccc5c(c4)OC(F)(F)O5)CC3)c(F)cc2n1C[C@@H](O)CO [TEZACAFTOR]

EC50 [3]: 3.3 µM
SMILES: COc1ccc(S(=O)(=O)N2CCN(C(C)c3nc(OC4CCCCC4)c4ccccc4n3)CC2)cc1 (stereo unspecified)
